The values that follow come from patent US20260138978A1, “POSITIVE ALLOSTERIC MODULATORS OF THE MUSCARINIC ACETYLCHOLINE RECEPTOR M1” (Vanderbilt University, priority 2022, published 2026).

Assay [1] has as its target T1, human mAChRM1 (Homo sapiens, UniProt P11229).
T1 construct: host or cells: CHO-K1
T1 sequence (P11229 1-460): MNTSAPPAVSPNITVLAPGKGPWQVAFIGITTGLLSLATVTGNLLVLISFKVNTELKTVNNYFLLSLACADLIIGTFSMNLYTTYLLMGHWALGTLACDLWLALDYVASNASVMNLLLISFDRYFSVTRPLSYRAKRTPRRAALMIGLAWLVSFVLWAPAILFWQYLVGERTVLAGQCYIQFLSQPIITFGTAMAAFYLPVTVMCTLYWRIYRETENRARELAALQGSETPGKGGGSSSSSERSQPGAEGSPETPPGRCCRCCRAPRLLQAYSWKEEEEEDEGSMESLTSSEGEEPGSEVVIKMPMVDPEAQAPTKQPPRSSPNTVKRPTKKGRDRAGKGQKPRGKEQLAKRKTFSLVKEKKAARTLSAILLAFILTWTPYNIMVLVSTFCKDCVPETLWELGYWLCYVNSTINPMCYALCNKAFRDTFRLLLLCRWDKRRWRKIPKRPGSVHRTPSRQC
Nature of the assay: mAChR M1 cell-based functional assay (calcium mobilization), agonist activity upon compound addition, Emax relative to acetylcholine maximum. The note with it: for Agonist Activity Human M1 EC50 / EC50: calcium mobilization upon compound addition; for Emax: relative to the maximum for acetylcholine. Summed up:
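Emax is given as a percentage of the maximal acetylcholine response, from four-parameter curves of compound-evoked calcium mobilization. Human M1-transfected CHO-K1 cells carried Fluo-4 dye, and compound (11 concentrations, 1:3 steps) was applied at 4 s of a 300 s kinetic fluorescence recording.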

For assay [2], the target named is T1, human mAChRM1. Briefly: mAChR M1 cell-based functional assay (calcium mobilization), positive allosteric modulator activity: increase in the EC20 acetylcholine response. The note with it: for Emax: PAM mode; for EC50: read-out: PAM Activity Human M1 EC50. A digest of the protocol: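 Potentiation is scored as the rise in an EC20 acetylcholine-evoked calcium signal across 11-point (1:3) compound series, fitted with a four-parameter logistic equation to give EC50 and Emax. Read-out is Fluo-4 fluorescence ratio in hM1-transfected CHO-K1 cells, measured kinetically on FDSS.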

Setting [3] is: increase in the EC20 acetylcholine response.

In the case of `Cc1cc(-c2cc(C(C)(C)O)cc3nn[nH]c23)cc(F)c1CN1Cc2ncccc2C1=O` [Compound 74, 6-(2-fluoro-4-(5-(2-hydroxypropan-2-yl)-1H-benzo[d][1,2,3]triazol-7-yl)-6-methylbenzyl)-6,7-dihydro-5H-pyrrolo[3,4-b]pyridin-5-one], the “Agonist Activity Human M1 EC50” value on human mAChRM1 [1] is “inactive”. Besides, the Emax at human mAChRM1 [2] came to 52%. In addition, the EC50 on human mAChRM1 [2] (setting [3]) was not below 10000 nM.
`CC(C)(O)c1cc(-c2ccc(CN3Cc4ncccc4C3=O)c(F)c2)c2[nH]nnc2c1` [Compound 75, 6-(2-fluoro-4-(5-(2-hydroxypropan-2-yl)-1H-benzo[d][1,2,3]triazol-7-yl)benzyl)-6,7-dihydro-5H-pyrrolo[3,4-b]pyridin-5-one]: the “Agonist Activity Human M1 EC50” value at human mAChRM1 [1] was “inactive”. Moreover, the Emax at human mAChRM1 [2] is 45%. The EC50 on human mAChRM1 [2] (setting [3]) is not below 10000 nM.
With `Cn1cc2c(-c3cc(F)c(CN4Cc5ncccc5C4=O)c(C(F)(F)F)c3)ccc(C(C)(C)O)c2n1` [Compound 76, 6-(2-fluoro-4-(7-(2-hydroxypropan-2-yl)-2-methyl-2H-indazol-4-yl)-6-(trifluoromethyl)benzyl)-6,7-dihydro-5H-pyrrolo[3,4-b]pyridin-5-one], on human mAChRM1 [1], the “Agonist Activity Human M1 EC50” value is “inactive”. Besides, on human mAChRM1 [2], the Emax was determined as 80%. Further, the EC50 on human mAChRM1 [2] (setting [3]) turned out to be 439 nM.
In the case of `CN(C)c1cc(-c2ccc(C(C)(C)O)c3nn(C)cc23)cc(F)c1CN1Cc2ncccc2C1=O` [Compound 77, 6-(2-(dimethylamino)-6-fluoro-4-(7-(2-hydroxypropan-2-yl)-2-methyl-2H-indazol-4-yl)benzyl)-6,7-dihydro-5H-pyrrolo[3,4-b]pyridin-5-one], on human mAChRM1 [1], the “Agonist Activity Human M1 EC50” value was “inactive”. The Emax at human mAChRM1 [2] was 73%. The EC50 on human mAChRM1 [2] (setting [3]) came to 3870 nM.
As to `Cn1cc2c(-c3cc(F)c(CN4Cc5ncccc5C4=O)c(N4CCC4)c3)ccc(C(C)(C)O)c2n1` [Compound 78, 6-(2-(azetidin-1-yl)-6-fluoro-4-(7-(2-hydroxypropan-2-yl)-2-methyl-2H-indazol-4-yl)benzyl)-6,7-dihydro-5H-pyrrolo[3,4-b]pyridin-5-one], at human mAChRM1 [1], the “Agonist Activity Human M1 EC50” value is “inactive”. Besides, on human mAChRM1 [2], the Emax was determined as 81%. Besides, the EC50 at human mAChRM1 [2] (setting [3]) is 583 nM.
As to `Cn1ncc2c(-c3cc(F)c(CN4Cc5ncccc5C4=O)c(F)c3)ccc(C(C)(C)O)c21` [Compound 79, 6-(2,6-difluoro-4-(7-(2-hydroxypropan-2-yl)-1-methyl-1H-indazol-4-yl)benzyl)-6,7-dihydro-5H-pyrrolo[3,4-b]pyridin-5-one], at human mAChRM1 [1], the “Agonist Activity Human M1 EC50” value is “inactive”. The Emax on human mAChRM1 [2] turned out to be 76%. Besides, the EC50 on human mAChRM1 [2] (setting [3]) turned out to be 1210 nM.
Take `Cn1cc2c(-c3cc(F)c(CN4Cc5ncccc5C4=O)c(F)c3)ccc(C(C)(O)C3CC3)c2n1` (stereo not shown) [Compound 80, 6-(4-(7-(1-cyclopropyl-1-hydroxyethyl)-2-methyl-2H-indazol-4-yl)-2,6-difluorobenzyl)-6,7-dihydro-5H-pyrrolo[3,4-b]pyridin-5-one]: on human mAChRM1 [1], the “Agonist Activity Human M1 EC50” value is “inactive”. In addition, the Emax at human mAChRM1 [2] was determined as 83%. Besides, the EC50 at human mAChRM1 [2] (setting [3]) was found to be 373 nM.
On to `CCC(O)(c1ccc(-c2cc(F)c(CN3Cc4ncccc4C3=O)c(F)c2)c2cn(C)nc12)C(F)(F)F` (stereo not shown) [Compound 81, 6-(2,6-difluoro-4-(2-methyl-7-(1,1,1-trifluoro-2-hydroxybutan-2-yl)-2H-indazol-4-yl)benzyl)-6,7-dihydro-5H-pyrrolo[3,4-b]pyridin-5-one], for which, at human mAChRM1 [1], the “Agonist Activity Human M1 EC50” value was “inactive”. In addition, at human mAChRM1 [2], the Emax amounted to 71%. Besides, the concentration giving a half-maximal response (EC50) at human mAChRM1 [2] (setting [3]) came out at 4470 nM.
For `CCC(C)(O)c1ccc(-c2cc(F)c(CN3Cc4ncccc4C3=O)c(F)c2)c2cn(C)nc12` (stereo not shown) [Compound 82, 6-(2,6-difluoro-4-(7-(2-hydroxybutan-2-yl)-2-methyl-2H-indazol-4-yl)benzyl)-6,7-dihydro-5H-pyrrolo[3,4-b]pyridin-5-one], the “Agonist Activity Human M1 EC50” value on human mAChRM1 [1] was “inactive”. Besides, the Emax on human mAChRM1 [2] is 80%. Besides, on human mAChRM1 [2] (setting [3]), the EC50 was 138 nM.
In the case of `CC(C)(O)c1cc(-c2cc(F)c(CN3Cc4ncccc4C3=O)c(F)c2)c2[nH]nnc2c1` [Compound 83, 6-(2,6-difluoro-4-(5-(2-hydroxypropan-2-yl)-1H-benzo[d][1,2,3]triazol-7-yl)benzyl)-6,7-dihydro-5H-pyrrolo[3,4-b]pyridin-5-one], at human mAChRM1 [1], the “Agonist Activity Human M1 EC50” value was “inactive”. For the same compound, the Emax on human mAChRM1 [2] is 39%. Besides, the EC50 on human mAChRM1 [2] (setting [3]) is not below 10000 nM.
As for `Cn1cc2c(-c3cc(F)c(CN4Cc5ncccc5C4=O)c(F)c3)ccc(C(O)(C3CC3)C3CC3)c2n1` [Compound 84, 6-(4-(7-(dicyclopropyl(hydroxy)methyl)-2-methyl-2H-indazol-4-yl)-2,6-difluorobenzyl)-6,7-dihydro-5H-pyrrolo[3,4-b]pyridin-5-one], the “Agonist Activity Human M1 EC50” value at human mAChRM1 [1] is “inactive”. Also, the Emax at human mAChRM1 [2] was determined as 84%. The EC50 on human mAChRM1 [2] (setting [3]) amounted to 1440 nM.
As to `Cc1cc(-c2ccc(C(O)(C3CC3)C3CC3)c3nn(C)cc23)cc(F)c1CN1Cc2ncccc2C1=O` [Compound 85, 6-(4-(7-(dicyclopropyl(hydroxy)methyl)-2-methyl-2H-indazol-4-yl)-2-fluoro-6-methylbenzyl)-6,7-dihydro-5H-pyrrolo[3,4-b]pyridin-5-one], the “Agonist Activity Human M1 EC50” value on human mAChRM1 [1] is “inactive”. Also, the Emax on human mAChRM1 [2] came to 81%. In addition, the EC50 at human mAChRM1 [2] (setting [3]) turned out to be 1700 nM.
On to `Cn1cc2cc(C(C)(C)O)cc(-c3cc(F)c(CN4Cc5ncccc5C4=O)c(F)c3)c2n1` [Compound 86, 6-(2,6-difluoro-4-(5-(2-hydroxypropan-2-yl)-2-methyl-2H-indazol-7-yl)benzyl)-6,7-dihydro-5H-pyrrolo[3,4-b]pyridin-5-one], for which the “Agonist Activity Human M1 EC50” value on human mAChRM1 [1] was “inactive”. The “PAM Activity Human M1 EC50” value at human mAChRM1 [2] (setting [3]) is “inactive”.
As to `CC(C)(O)c1ccc(-c2cc(F)c(CN3Cc4ncccc4C3=O)c(F)c2)c2c1OCO2` [Compound 87, 6-(2,6-difluoro-4-(7-(2-hydroxypropan-2-yl)benzo[d][1,3]dioxol-4-yl)benzyl)-6,7-dihydro-5H-pyrrolo[3,4-b]pyridin-5-one], the “Agonist Activity Human M1 EC50” value at human mAChRM1 [1] was “inactive”. In addition, the Emax at human mAChRM1 [2] worked out at 73%. At human mAChRM1 [2] (setting [3]), the EC50 was 1000 nM.
As for `Cn1cc2cc(-c3cc(F)c(CN4Cc5ncccc5C4=O)c(C4CC4)c3)cc(C(C)(C)O)c2n1` [Compound 88, 6-(2-cyclopropyl-6-fluoro-4-(7-(2-hydroxypropan-2-yl)-2-methyl-2H-indazol-5-yl)benzyl)-6,7-dihydro-5H-pyrrolo[3,4-b]pyridin-5-one], the EC50 is not below 10000 nM on human mAChRM1 [1] and 398 nM at human mAChRM1 [2] (setting [3]). For the same compound, the Emax came out at 21% on human mAChRM1 [1] and 82% on human mAChRM1 [2].
As to `Cn1cc2c(-c3cc(F)c(CN4Cc5ncccc5C4=O)c(F)c3)ccc(C3(O)COC3)c2n1` [Compound 89, 6-(2,6-Difluoro-4-(7-(3-hydroxyoxetan-3-yl)-2-methyl-2H-indazol-4-yl)benzyl)-6,7-dihydro-5H-pyrrolo[3,4-b]pyridin-5-one], the EC50 on human mAChRM1 [1] is 6840 nM; on human mAChRM1 [2] (setting [3]), 254 nM. In addition, the Emax is 11% on human mAChRM1 [1] and 82% at human mAChRM1 [2].
